Values quoted from earlier work as cited in US9493497B2, “Carbamate glycolipid and use thereof” (RIKEN, priority 2012, dated 2016).
Blank lines part the entries; values can stand above or below the compound they belong to.

How the values were obtained:
[1] = not given; remark: listed apart in the source

Structure (SMILES): CCCCCCCCCCCCCCCCCCCCCCCCCC(=O)N[C@@H](CO[C@H]1OC(CO)[C@H](O)C(O)C1O)[C@H](O)[C@H](O)CCCCCCCCCCCCCC (stereo partly shown) [KRN7000]
- anti-tumor activity (tumor): extremely strong anti-tumor activity

- solubility in DMSO: improved solubility in DMSO
Structure (SMILES): CCCCCCCC/C=C\CCCCCCCCCCCCCC(=O)N[C@@H](CO[C@H]1OC(CNC(C)=O)[C@H](O)[C@H](O)C1O)[C@H](O)[C@H](O)CCCCCCCCCCCCCC (stereo partly shown) [PBS-57]

Structure (SMILES): CCCCCCCCCCCCCCCCCCCCCCCCCC(=O)N[C@@H](CO[C@H]1CC(CO)[C@H](O)[C@H](O)C1O)[C@H](O)[C@H](O)CCCCCCCCCCCCCC (stereo partly shown) [RCAI-56]
- NKT cell activation / IFN-γ production induction (NKT cells): strongly activates NKT cells and induces production of a large amount of IFN-γ

- solubility in water [1]: low solubility in water
Structure (SMILES): CCCCCCCCCCCCCCCCCCCCCCCCCC(=O)N[C@@H](CO[C@H]1O[C@H](COC)[C@H](O)[C@H](O)[C@H]1O)[C@H](O)[C@H](O)CCCCCCCCCCCCCC [RCAI-61]
- NKT cell activation / IFN-γ production induction (NKT cells): induces production of IFN-γ in large amounts

Structure (SMILES): CCCCCCCCCCCCCCCCCCCCCCCCCC(=O)N[C@@H](CC[C@H]1OC(CO)[C@H](O)C(O)C1O)[C@H](O)[C@H](O)CCCCCCCCCCCCCC (stereo partly drawn) [α-C-GalCer]
- activation of NKT cells of mouse (NKT cells of mouse): strongly activates NKT cells of mouse and preferentially produces IFN-γ
- cytokine production in human NKT cells (human NKT cells): scarcely induces cytokine production
